Experimental data taken from publication PMC7396449, “Biochemical determinants of the IGFBP‐3–hyaluronan interaction” (FEBS Open Bio, 2020).
One block for each substance: values may come before it. Ends that are not written are not given here.

Key:
IGFBP‐3 Nonglycosylated = biological target: T1, IGFBP‐3 Nonglycosylated (Homo sapiens, UniProt P17936); test: ELISA binding of biotin-HA or biotin-HN to immobilized nonglycosylated IGFBP-3; conditions: nonglycosylated IGFBP-3 (50 nM) coated; 0–2 μM biotin-ligand, overnight 4 °C; mean ± SD of three independent experiments in triplicate; read-out: concentration of biotin-HA or biotin-HN that produced 50% of maximum binding
T1 construct: We therefore elected to use the full‐length IGFBP‐3 protein to examine the effect of glycosylation; purchased MyBioSource MBS142177
T1 sequence (P17936 28-291): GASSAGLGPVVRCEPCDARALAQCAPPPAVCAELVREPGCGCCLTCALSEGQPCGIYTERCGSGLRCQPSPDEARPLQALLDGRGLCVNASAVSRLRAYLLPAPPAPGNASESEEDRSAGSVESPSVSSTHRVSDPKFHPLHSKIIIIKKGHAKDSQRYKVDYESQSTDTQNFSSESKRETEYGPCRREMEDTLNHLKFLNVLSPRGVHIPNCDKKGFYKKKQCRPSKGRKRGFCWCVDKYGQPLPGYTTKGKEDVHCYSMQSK
Experimental: (§1) ELISA was conducted as we reported previously. Nunc MaxiSorp 96‐well flat‐bottom plates (Thermo Fisher, Waltham, MA, USA) were coated with samples as indicated. The plates were incubated overnight at 4 °C on a shaker to allow binding of the samples to the plate wells. After the incubation, the wells were washed 4× with TBST, filled with 400 µL blocking buffer (110 mM KCl, 5 mM NaHCO3, 5 mM MgCl2, 1 mM EGTA, 0.1 mM CaCl2, 20 mM HEPES, 1% BSA, pH 7.4), and incubated overnight at 4 °C on a shaker. The wells were then washed 4× with TBST, and 100 µL of sample at the desired concentration was added to each well before incubating overnight at 4 °C on a shaker. TBST was then used to wash the wells 4× before proceeding in one of two ways: (a) Biotinylated samples were analyzed by adding 100 µL streptavidin–HRP conjugate in TBST (1 : 2500 dilution) to the samples before incubating for 3 h at RT on a shaker, or (b) samples without biotin were analyzed by adding 100 µL TBST containing the primary antibody at the manufacturer's recommendation and incubating for 3 h at RT on a shaker before washing 4× with TBST. […] The reaction was stopped with 100 µL 2 M H2SO4 after incubating at RT for 0.5–15 min, resulting in a yellow color change that was measured by absorbance at 450 nm. […] Statistical analysis was determined by the GRAPHPAD PRISM 8.4.2 software (San Diego, CA, USA). […]

[1] = biological target: T2, IGFBP‐3 Nonglycosylated/Reduced (Homo sapiens, UniProt P17936); test: ELISA binding of biotin-HA or biotin-HN to immobilized nonglycosylated/reduced IGFBP-3; conditions: nonglycosylated/reduced (TCEP, NEM) IGFBP-3 (50 nM) coated; 0–2 μM biotin-ligand, overnight 4 °C; mean ± SD of three independent experiments in triplicate; read-out: concentration of biotin-HA or biotin-HN that produced 50% of maximum binding
T2 construct: We therefore elected to use the full‐length IGFBP‐3 protein to examine the effect of glycosylation; purchased MyBioSource MBS142177
T2 sequence (P17936 28-291): as above
Experimental: as §1

[2] = biological target: T3, IGFBP‐3 Glycosylated/Reduced (Homo sapiens, UniProt P17936); test: ELISA binding of biotin-HA or biotin-HN to immobilized glycosylated/reduced IGFBP-3; conditions: glycosylated/reduced (TCEP, NEM) IGFBP-3 (50 nM) coated; 0–2 μM biotin-ligand, overnight 4 °C; mean ± SD of three independent experiments in triplicate; read-out: concentration of biotin-HA or biotin-HN that produced 50% of maximum binding
T3 construct: We therefore elected to use the full‐length IGFBP‐3 protein to examine the effect of glycosylation; His; purchased Speed BioSystems YCP1009
T3 sequence (P17936 28-291): as above
Experimental: as §1

IGFBP‐3 Glycosylated = biological target: T4, IGFBP‐3 Glycosylated (Homo sapiens, UniProt P17936); test: ELISA binding of biotin-HA or biotin-HN to immobilized glycosylated IGFBP-3; conditions: glycosylated IGFBP-3 (50 nM) coated; 0–2 μM biotin-ligand, overnight 4 °C; mean ± SD of three independent experiments in triplicate; read-out: concentration of biotin-HA or biotin-HN that produced 50% of maximum binding
T4 construct: We therefore elected to use the full‐length IGFBP‐3 protein to examine the effect of glycosylation; His; purchased Speed BioSystems YCP1009
T4 sequence (P17936 28-291): as above
Experimental: as §1

[3] = biological target: binding of biotin‐HA to immobilized IGFBP‐3; test: ELISA, competition of CD44 with IGFBP-3 for binding HA; design: species or system human; conditions: for IC50: 10 nM glycosylated IGFBP-3 coated, biotin-HA 100 nM incubated 1 h with CD44 0–1000 nM, mean ± SD of three independent experiments in triplicate, read-out: concentration of CD44 that produced 50% of maximum binding (50% inhibition of biotin-HA binding to IGFBP-3)
Experimental: ELISA was conducted as we reported previously. Nunc MaxiSorp 96‐well flat‐bottom plates (Thermo Fisher, Waltham, MA, USA) were coated with samples as indicated. The plates were incubated overnight at 4 °C on a shaker to allow binding of the samples to the plate wells. After the incubation, the wells were washed 4× with TBST, filled with 400 µL blocking buffer (110 mM KCl, 5 mM NaHCO3, 5 mM MgCl2, 1 mM EGTA, 0.1 mM CaCl2, 20 mM HEPES, 1% BSA, pH 7.4), and incubated overnight at 4 °C on a shaker. The wells were then washed 4× with TBST, and 100 µL of sample at the desired concentration was added to each well before incubating overnight at 4 °C on a shaker. TBST was then used to wash the wells 4× before proceeding in one of two ways: (a) Biotinylated samples were analyzed by adding 100 µL streptavidin–HRP conjugate in TBST (1 : 2500 dilution) to the samples before incubating for 3 h at RT on a shaker, or (b) samples without biotin were analyzed by adding 100 µL TBST containing the primary antibody at the manufacturer's recommendation and incubating for 3 h at RT on a shaker before washing 4× with TBST. The secondary antibody in 100 µL TBST was then added to the samples following the manufacturer's recommendation and incubated for 1 h at RT on a shaker. Plates containing either biotinylated or nonbiotinylated samples were then washed 5× with TBST followed by the addition of 100 µL TMB resulting in a blue color change. The reaction was stopped with 100 µL 2 M H2SO4 after incubating at RT for 0.5–15 min, resulting in a yellow color change that was measured by absorbance at 450 nm. To monitor nonspecific binding, negative control wells on the plates included, for example, bound IGFBP‐3 then adding all components, streptavidin–horseradish peroxidase and TMB, but without addition of biotin‐HN. Some wells were coated with 2.5, 10, 50, 100, 500, and 5000 nM biotin‐HN or biotin‐HA to allow conversion of the OD measurements to concentrations of bound material. Before analysis, the OD from the data was corrected for nonspecific binding by subtracting the mean background absorbance for the negative controls. Typically, in control wells incubated on each plate, the background binding is about 10–15% of the maximum binding seen with addition of biotin‐HN or biotin‐HA or antibodies. Statistical analysis was determined by the GRAPHPAD PRISM 8.4.2 software (San Diego, CA, USA). Data were expressed as the mean ± SD. Three to five independent experiments were carried out in triplicate for each assay condition.
Glycosylated recombinant His‐tagged IGFBP‐3 (Speed BioSystems) and nonglycosylated recombinant IGFBP‐3 (MyBioSource, San Diego, CA, USA) were used as reported earlier. Glycosylated human CD44 recombinant protein was purchased from Sino Biological (Wayne, PA, USA). To cleave N‐linked glycans, the proteins were treated with PNGase F for 4 h at 37 °C under nondenaturing conditions according to the manufacturer's specification. To reduce the proteins and following previous protocols, the purified proteins were reduced with TCEP‐HCl (2.5 mM in PBS/1%BSA for 20 min at 4 °C) and then alkylated by 5 mM NEM for 30 min at 4 °C, to permanently block disulfide bond formation. As control, nonreduced samples treated with only 5 mM NEM were used. […]

amyloid‐β = conditions: aggregation induced by acetylcholinesterase; cited from earlier work
Source text: (§2) Humanin (HN), first discovered by the Nishimoto laboratory, is a mitochondrial‐derived peptide known to bind with high affinity and specificity to the 18‐amino acid residue (215–232) heparin‐binding domain of IGFBP‐3 [54] that also binds HA.

[4] = system: IGFBP‐3 interaction with importin‐β1; conditions: in vitro; cited from earlier work
Source text: as §2

[5] = system: HFL1 normal human fibroblast cells (CD44-negative); test: MTT cell viability, HFL1; type: cell-based; conditions: protein 50 nM, 48 h, with or without 5F12
Experimental: (§3) HFL1 (ATCC CCL‐153) normal, nontransformed, and nontumorigenic human fibroblast cell line and the human NSCLC cell line, A549 (ATCC CCL‐185), were purchased from the American Type Culture Collection (ATCC, Manassas, VA, USA). Cells were seeded as we reported earlier in 5 mL HyClone Dulbecco's modified Eagle's medium/nutrient mixture F‐12 (DMEM/F12) (GE Healthcare Life Sciences, Pittsburgh, PA, USA), supplemented with 10% Fetalgro bovine growth serum (FBS; RMBIO, Missoula, MT, USA), 50 U·mL^−1 penicillin, and 50 U·mL^−1 streptomycin (Invitrogen Life Technologies, Carlsbad, CA, USA) in 25‐cm^2 tissue culture flasks, and allowed to grow overnight in an incubator at 37 °C, 95% humidity, and 5% CO2. Cells were counted with a hemocytometer after trypan blue staining.
(§4) The MTT reduction assay (Sigma‐Aldrich), used to measure cell viability, was employed as we reported earlier. […] The absorbance was measured at 570 nm in a plate reader. […]
(§5) (A) IGFBP‐3 peptides (50 nM each) were bound to the ELISA plate wells, and then, 200 nM biotin‐HA was added and processed as described in the Materials and methods section. The data were normalized to the control incubated with BSA (control 1), and fold change relative to the control was calculated. […] Cell viability was assessed by the MTT assay. […]

[6] = system: A549 human NSCLC cells (CD44-expressing); test: MTT cell viability, A549; type: cell-based; conditions: protein 50 nM, 48 h, with or without 5F12
Experimental: as §3, §4, §5

[7] = after reduction; cited from earlier work
Source text: We next tested whether reduction of CD44 affects its ability to compete with IGFBP‐3 for binding HA. […] Reduction of this bond inhibited HA‐CD44 interaction in vitro, and the ability of cells to adhere to HA‐coated surfaces was blocked by pretreatment with reducing agents. Moreover, reductio ...

Substance: Biotin‐HN: biotin-HN (B-018-26, UniProt Q8IVG9), Phoenix Pharmaceuticals; biotinylated humanin
EC50 (IGFBP‐3 Nonglycosylated): 92 ± 16 nM
EC50 [1]: 96 ± 12 nM
EC50 [2]: 98 ± 16 nM
EC50 (IGFBP‐3 Glycosylated): 104 ± 14 nM

IC50 [3]: 210 ± 41 nM
Substance: CD44 Glycosylated/Reduced: glycosylated CD44, reduced with TCEP-HCl then alkylated by NEM

IC50 [3]: 128 ± 24 nM
Substance: CD44 Glycosylated: Glycosylated human CD44 recombinant protein (Sino Biological)

IC50 [3]: 176 ± 37 nM
Substance: CD44 Nonglycosylated/Reduced: PNGase F treated CD44, reduced with TCEP-HCl then alkylated by NEM

IC50 [3]: 9 ± 2 nM
Substance: CD44 Nonglycosylated: human recombinant CD44 treated with PNGase F to cleave N-linked glycans
ability of CD44 to block HA-IGFBP-3 interaction (in words) ([3]; 10 nM IGFBP-3 coated, biotin-HA 100 nM): more efficient at inhibiting the binding of biotin‐HA to immobilized IGFBP‐3 than glycosylated CD44

Substance: HN: mitochondrial-derived peptide binding the 18-amino acid residue (215–232) heparin-binding domain of IGFBP-3 (MAPRGFSCLLLLTSEIDLPVKRRA-NH2; UniProt Q8IVG9 1-24, looked up)
effect on amyloid-β aggregation (in words) (amyloid‐β): aggregation of amyloid‐β induced by acetylcholinesterase is blocked by the presence of HN
effect on IGFBP-3–importin-β1 interaction (in words) [4]: blocks its interaction with importin‐β1 in vitro

Substance: glycosylated IGFBP‐3 protein: Glycosylated recombinant His-tagged IGFBP-3 (Speed BioSystems)
HFL1 cell viability, IGFBP-3 proteins (in words) [5]: lack of effect
A549 cell viability, IGFBP-3 proteins (in words) [6]: a comparable decrease in A549 cell viability

Substance: nonglycosylated IGFBP‐3 protein: nonglycosylated recombinant IGFBP-3 (MyBioSource)
HFL1 cell viability, IGFBP-3 proteins (in words) [5]: lack of effect
A549 cell viability, IGFBP-3 proteins (in words) [6]: a comparable decrease in A549 cell viability

Substance: recombinant soluble CD44: recombinant soluble CD44 of ref 47
effect of reduction on ability of CD44 to bind HA (in words) [7]: inhibit its ability to bind HA
